Results on seven molecules are retold here after US20180344735A1, “USE OF sGC STIMULATORS FOR THE TREATMENT OF GASTROINTESTINAL SPHINCTER DYSFUNCTION” (Ironwood Pharmaceuticals, Inc., priority 2015, published 2018).

Each structure is given as a SMILES string.

Assay [1] has as its system human lower esophageal sphincter (LES) tissues. Nature of the assay: Ex vivo relaxation of carbachol-pre-contracted human lower esophageal sphincter (LES) muscle strips, organ bath. Format: cell-based. On the procedure: The objective of this study was to determine the relaxation effects of two sGC stimulators, Compound A and Compound B (depicted below) on human lower esophageal sphincter (LES) tissues ex vivo. Human lower esophageal sphincter muscle strips were mounted in a wire myograph apparatus and pre-contracted with carbachol (Cch). A cumulative concentration response curve (CCRC) of Compound A and Compound B was then performed on the tissues. The concentration response was performed with the compounds alone, and/or with the test compounds in the presence of a fixed concentration of the NO donor DETA-NONOate.
Compound A and Compound B were stored at room temperature. On each experimental day, 10 mM stock of the test compound was prepared in DMSO. Further dilutions up to 0.1 μM were made serially in ethanol, and subsequently in distilled water, depending on solubility of the compounds in those solvents. Compound A and Compound B Vehicle solutions were made by following the same serial dilution methods
DETA-NONOate was stored at −20° C. On each experimental day, a stock solution of 100 mM was prepared in Phosphate Buffered Saline (PBS), pH 8 (Boston Bioproducts). A 1:10 dilution from the stock was made in PBS pH 8, to obtain a concentration of 10 mM.
SNP was stored at −20° C. On each experimental day, a stock solution of 100 mM was prepared in distilled water. 25 μl of the 100 mM stock was added to each bath for a final concentration of 100 μM in bath.
Tissues were obtained postmortem. Only macroscopically normal tissue that was obtained from donors with no known recent history of gastrointestinal disease.
Human LES mucosa-free muscle strips, of approximately 15 mm in length and 2-3 mm width were dissected free from surrounding tissue and mounted on tissue posts in 25 mL organ baths (Panlab 16 channel automated organ bath and thermostatic controller) containing physiological saline solution (PSS; composition: 119.0 mM NaCl, 4.70 mM KCl, 1.20 mM MgSO4, 24.9 mM NaHCO3, 1.20 mM KH2PO4, 2.50 mM CaCl2, 11.1 mM glucose), aerated with 95% O2/5% CO2, warmed and maintained at approximately 37° C. The PSS solution was supplemented with 1 μM indomethacin. The LES strips were mounted on the tissue posts and allowed to equilibrate for approximately 30 minutes.
The LES strips were set to a tension of 2.0 g+0.2 g. Baths were washed approximately every 15 minutes over a 60-minute period, with re-tensioning to 2.0±0.2 g if tension dropped below 1.0 g.
The viability of the LES muscle strips was tested by application of 80 mM KCl, looking for maximum contractility response. Upon plateau all baths were washed three times with PSS and the tension was allowed to return to baseline levels. The strips that responded to the KCl functional check were used for CCh-induced contractions.
For each one of compounds A and B, experiments were conducted with LES tissues from two human donors on two separate days.
Upon stabilization of baseline tension, each of the following experiments was allocated to one bath such that 9 or more muscle strips were set up for each compound on each experimental day.
Compound A Experiments with tissues from Donor 1: • 1. CCRC to DETA-NO vehicle • 2. CCRC to Compound A vehicle • 3. CCRC to DETA-NO • 4. CCRC to DETA-NO • 5. CCRC to Compound A • 6. CCRC to Compound A • 7. Since DETA-NO relaxed LES, a CCRC to Compound A was performed in the presence of DETA-NO at a sub-threshold concentration (1 μM, determined in conditions 3 and 4) • 8. CCRC to Compound A in the presence of DETA-NO ([…]) • 9. CCRC to Compound A vehicle in the presence of DETA-NO ([…]).
Compound A Experiments with tissues from Donor 2: • 1. CCRC to Compound A vehicle • 2. CCRC to Compound A vehicle • 3. CCRC to Compound A vehicle in the presence of 10 μM DETA-NO • 4. CCRC to Compound A vehicle in the presence of 30 μM DETA-NO • 5. CCRC to Compound A • 6. CCRC to Compound A • 7. CCRC to Compound A in the presence of 10 μM DETA-NO • 8. CCRC to Compound A in the presence of 10 μM DETA-NO • 9. […]

The test system of a further assay is achalasia patients. Conditions: report from 2000; cited from earlier work.
Where [2] appears, read: 10 μM compound in the presence of 30 μM DETA-NO.
The mark [3] stands for this setting: in the presence of 30 μM DETA-NO.

Usually EC50 stands for the concentration that produces a half-maximal response. `Fc1ccccc1Cn1nc(-c2nc(C(F)(F)F)n[nH]2)c2cccnc21` [Compound E]: in assay [1] (setting [2]), the “maximum relaxation relative to isoprenaline” value was 89%. Besides, in assay [1] (setting [3]), the EC50 amounted to 530 nM.
`NCCN(CCN)/[N+]([O-])=N/O` [DETA-NO, diethylenetriamine/NO, reference compound]: the mean percentage relaxation in assay [1] (10 μM DETA-NO alone, second donor, N=5) was determined as 8%; in assay [1] (30 μM DETA-NO alone, second donor, N=4), 13%. Further, the “mean relaxation relative to isoprenaline” value in assay [1] (30 μM DETA-NO alone, Compound B experiments, N=12) is recorded as 7.6%.
`CCCc1nn(C)c2c(=O)[nH]c(-c3cc(S(=O)(=O)N4CCN(C)CC4)ccc3OCC)nc12` [sildenafil]: in the assay with achalasia patients, the “effect on LES pressure” value was “able to reduce LES pressure” and the “effect on clinical symptoms” value was “clinical symptoms were not improved”.
As to `NC(=O)[C@](O)(CNc1nc(-c2cc(-c3ccon3)n(Cc3ccccc3F)n2)ncc1F)C(F)(F)F` [Compound B], the “maximum relaxation relative to isoprenaline” value in assay [1] (setting [2]) came to 77%; in assay [1] (10 μM compound, absence of NO, N=8) it was 47%. The EC50 in assay [1] (setting [3]) was 1700 nM.
For `C[C@@]1(C(F)(F)F)C(=O)Nc2nc(-c3nn(Cc4ncccc4F)c4ncc(F)cc34)nc(NCCC(F)(F)F)c21` [Compound D], the “maximum relaxation relative to isoprenaline” value in assay [1] (setting [2]) is listed as 80%. Also, the EC50 in assay [1] (setting [3]) was 1600 nM.
For the molecule `OC(CNc1nc(-c2cc(-c3ccon3)n(Cc3ccccc3F)n2)ncc1F)(C(F)(F)F)C(F)(F)F` [Compound A], the relaxation in assay [1] (10 μM compound in the presence of 1 μM DETA-NO, donor 1) stood at 16%. For the same molecule, the maximum relaxation in assay [1] (10 μM compound in the presence of 10 μM DETA-NO, donor 2, N=4) worked out at 38%; in assay [1] (10 μM compound, absence of NO, first donor, N=2), 49%; in assay [1] (10 μM compound, absence of NO, second donor, N=2), 31%; in assay [1] (in the presence of 30 μM DETA-NO, donor 2, N=3) it was 51%.
Take `COC(=O)N(C)c1c(N)nc(-c2nn(Cc3ccccc3F)c3ncccc23)nc1N` [Compound C]: in assay [1] (setting [2]), the “maximum relaxation relative to isoprenaline” value is recorded as 90%. Further, the EC50 in assay [1] (setting [3]) was 500 nM.
